Where two headings read alike, the source gives them in different places.
Tests used:
breast cancer [1] = conditions: cited from earlier work
[2] = test system: ERα positive breast cancer; conditions: cited from earlier work
ERα+/PR+ tumors = conditions: cited from earlier work
[3] = test system: stage II primary breast carcinoma; assay: Controlled, randomized adjuvant tamoxifen trial; Kaplan-Meier survival analysis by CRABP2 level on breast cancer TMA; type: in vivo, human
From the text: Median age at diagnosis was 45 (25-57) years. Median follow-up was 13.9 years and less than 2% of the patients had received adjuvant chemotherapy. The study design is described in detail elsewhere (Rydén et al, Eur J Cancer, 2005, 41(2): 256-64). Ethical permission was obtained from the Local Ethics Committees at Lund and Linköping Universities.
All cases had been histopathologically re-evaluated on hematoxylin and eosin stained slides. TMA:s were then constructed by sampling 2×0.6 mm cores per case from areas representative of invasive cancer. The TMA:s were prepared and automated immunohistochemistry was performed as described in section 3 above, using the CRABP2 antibody prepared as described in section 2 above.
As with “staining intensity” in Examples, Section 3 above, ni was subjectively evaluated in accordance to standards used in clinical histo-pathological diagnostics and outcome was classified as: absent (O)=no immunoreactivity, weak (1)=faint immunoreactivity, moderate (2)=medium immunoreactivity or strong (3)=distinct and strong immunoreactivity. Further, as with “the fraction of stained cells” in Examples, Section 3 above, nf was classified as <2%, 2-25%, 26-75% or >75%. Two categories were defined: “CRABP2 low” corresponding to nf<=25% and ni=0-1; and “CRABP2 high” corresponding to nf>25% and/or ni=2-3 (FIG. 1). This classification of samples was used for recurrence free survival (RFS) or breast cancer specific survival ([…]) analysis according to the Kaplan-Meier estimator, and the log-rank test was used to compare survival in different strata. All statistical tests were two-sided, and p-values of <[…] were considered significant. All calculations were made with the statistical package SPSS 12.0 (SPSS Inc. Illinois, USA).

breast cancer [4] = conditions: five years adjuvant tamoxifen after primary surgery; ER positive tumors, irrespective of lymph node status; cited from earlier work
ERα+/PR− tumors = conditions: postmenopausal women, follow-up 6 years, compared to patients treated with tamoxifen; cited from earlier work

CC/C(=C(\c1ccccc1)c1ccc(OCCN(C)C)cc1)c1ccccc1 [tamoxifen]
recurrence-free and overall survival (breast cancer [1]; high PR level, >75% nuclear fraction, irrespectively of ERα status): significantly correlated with an increased recurrence-free and overall survival
recurrence-free and overall survival (breast cancer [1]; lower PR level, <75%): no positive effect
ERα positive patients that do not respond to treatment [2]: 30-40%
disease free survival (ERα+/PR+ tumors; older patients (≧60 years), ERα+/PR+ tumors, tamoxifen vs no adjuvant treatment): significantly longer disease free survival
disease free survival (ERα+/PR+ tumors; younger patients (<60 years)): no significant effect
recurrence free survival (RFS) ([3]; CRABP2 high tumors, irrespective of ER status, adjuvant tamoxifen 2 years vs control (FIG. 3B)): improved survival
recurrence free survival (RFS) ([3]; CRABP2 low tumors, irrespective of ER status, tamoxifen vs control (FIG. 3A)): no impact on survival
recurrence free survival (RFS) ([3]; ERα+ and CRABP2 high, tamoxifen vs control (FIG. 4B)): a trend towards a positive response
recurrence free survival (RFS) ([3]; ERα+ and CRABP2 low, tamoxifen vs control (FIG. 4A)): a trend towards a positive response
recurrence free survival (RFS) ([3]; ERα− and CRABP2 high, tamoxifen vs control (FIG. 5B)): positively affected
breast cancer specific survival (BCSS) ([3]; ERα− and CRABP2 high, tamoxifen vs control (FIG. 6B)): better trend
recurrence free survival (RFS) ([3]; ERα− and CRABP2 low, tamoxifen vs control (FIG. 5A)): negatively affected
breast cancer specific survival (BCSS) ([3]; ERα− and CRABP2 low, tamoxifen vs control (FIG. 6A)): worse trend
recurrence free survival (RFS) ([3]; ERα− and PR−, CRABP2 high, tamoxifen vs control (FIG. 11b)): better trend
breast cancer specific survival (BCSS) ([3]; ERα− and PR−, CRABP2 high, tamoxifen vs control (FIG. 12b)): better trend
recurrence free survival (RFS) ([3]; ERα− and PR−, CRABP2 low, tamoxifen vs control (FIG. 11a)): worse trend
breast cancer specific survival (BCSS) ([3]; ERα− and PR−, CRABP2 low, tamoxifen vs control (FIG. 12a)): worse trend
recurrence free survival (RFS) ([3]; ERα− and/or PR−, CRABP2 high, tamoxifen vs control (FIG. 9b)): better trend
breast cancer specific survival (BCSS) ([3]; ERα− and/or PR−, CRABP2 high, tamoxifen vs control (FIG. 10b)): better trend
recurrence free survival (RFS) ([3]; ERα− and/or PR−, CRABP2 low, tamoxifen vs control (FIG. 9a)): worse trend
breast cancer specific survival (BCSS) ([3]; ERα− and/or PR−, CRABP2 low, tamoxifen vs control (FIG. 10a)): worse trend
recurrence free survival (RFS) ([3]; PR− and CRABP2 high, tamoxifen vs control (FIG. 7B)): better survival probability trend
breast cancer specific survival (BCSS) ([3]; PR− and CRABP2 high, tamoxifen vs control (FIG. 8B)): better trend
recurrence free survival (RFS) ([3]; PR− and CRABP2 low, tamoxifen vs control (FIG. 7A)): negatively affected
breast cancer specific survival (BCSS) ([3]; PR− and CRABP2 low, tamoxifen vs control (FIG. 8A)): worse trend
breast cancer mortality (breast cancer [4]): reduces the breast cancer mortality

CC(C)(C#N)c1cc(Cn2cncn2)cc(C(C)(C)C#N)c1 [anastrozole]
recurrence rate (ERα+/PR− tumors): halved

Reference: patent publication US20110003854A1, “BREAST CANCER TREATMENT AND TREATMENT PREDICTION” (priority 2007, published 2011)
